Assay results as given in patent US20090221829A1 (priority 2005, published 2009).

These compounds were tested on Candida albicans(KCTC 1940), Aspergillus niger (ATCC 9642) and Saccharomyces cerevisiae (assay: Relative antifungal activity by agar dilution method (vs Miconazole)). Details: agar dilution method; fungicidal concentration relative to control drug Miconazole (=4).
Format: cell-based
Excerpt: Novel compounds represented by the above chemical formula (I), and the relative activities in accordance with the agar dilution method in Sabouraud dextrose agar media, Czapek agar media and Yeast Extract-Peptone-Dextrose agar media for Candida albicans(KCTC 1940), Aspergillus niger (ATCC 9642) and Saccharomyces cerevisiae are described respectively in following Table 1.
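Note: scores 5 to 7 mean a lower fungicidal concentration than Miconazole so higher is more potent.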

Compared with CCCCCC1=[N+](Cc2ccc(F)c(F)c2)CCc2cc(OC)c(OC)cc21.[Cl-] [Compound No. 41, 1-n-pentyl-2-(3,4-difluorophenyl)methyl-3,4-dihydro-6,7-dimethoxyisoquinolinium chloride], CCCCCCCC1=[N+](Cc2ccc(F)c(F)c2)CCc2cc(OC)c(OC)cc21.[Cl-] [Compound No. 43, 1-n-heptyl-2-(3,4-difluorophenyl)methyl-3,4-dihydro-6,7-dimethoxyisoquinolinium chloride] is lower in “Relative Activity” value: 6 for the first, 3 for the second.

CCCCCCC1=[N+](Cc2ccccc2F)CCc2cc(OC)c(OC)cc21.[Cl-] [Compound No. 10, 1-n-hexyl-2-(2-fluorophenyl)methyl-3,4-dihydro-6,7-dimethoxyisoquinolinium chloride] and CCCCCC1=[N+](Cc2ccccc2F)CCc2cc(OC)c(OC)cc21.[Cl-] [Compound No. 9, 1-n-pentyl-2-(2-fluorophenyl)methyl-3,4-dihydro-6,7-dimethoxyisoquinolinium chloride] are the same in “Relative Activity” value: 4 for the first, 4 for the second.

CCCCCC1=[N+](Cc2ccc(OC)cc2)CCc2cc(OC)c(OC)cc21.[Cl-] [Compound No. 34, 1-n-pentyl-2-(4-methoxyphenyl)methyl-3,4-dihydro-6,7-dimethoxyisoquinolinium chloride] and CCCCCCC1=[N+](Cc2ccc(OC)cc2)CCc2cc(OC)c(OC)cc21.[Cl-] [Compound No. 35, 1-n-hexyl-2-(4-methoxyphenyl)methyl-3,4-dihydro-6,7-dimethoxyisoquinolinium chloride] are the same in “Relative Activity” value: 4 for the first, 4 for the second.

COc1cc2c(cc1OC)C(c1ccccc1F)=[N+](Cc1ccc(C(F)(F)F)cc1)CC2.[Cl-] [Compound No. 31, 1-(2-fluorophenyl)-2-(4-trifluoromethylphenyl)methyl-3,4-dihydro-6,7-dimethoxyisoquinolinium chloride] and COc1cc2c(cc1OC)C(c1ccccc1F)=[N+](Cc1ccccc1F)CC2.[Cl-] [Compound No. 14, 1-(2-fluorophenyl)-2-(2-fluorophenyl)methyl-3,4-dihydro-6,7-dimethoxyisoquinolinium chloride] are the same in “Relative Activity” value: 6 for the first, 6 for the second.

Compared with CCCCCCCC1=[N+](Cc2ccc(OC)cc2)CCc2cc(OC)c(OC)cc21.[Cl-] [Compound No. 36, 1-n-heptyl-2-(4-methoxyphenyl)methyl-3,4-dihydro-6,7-dimethoxyisoquinolinium chloride], CCCCCCCCCCCC1=[N+](Cc2ccc(OC)cc2)CCc2cc(OC)c(OC)cc21.[Cl-] [Compound No. 37, 1-n-undecyl-2-(4-methoxyphenyl)methyl-3,4-dihydro-6,7-dimethoxyisoquinolinium chloride] is lower in “Relative Activity” value: 3 for the first, 2 for the second.

CCCCCCCCCCCC1=[N+](Cc2ccccc2F)CCc2cc(OC)ccc21.[Cl-] [Compound No. 88, 1-n-undecyl-2-(2-fluorophenyl)methyl-3,4-dihydro-6-methoxyisoquinolinium chloride] and CCCCCCCCCCCC1=[N+](Cc2ccccc2Cl)CCc2cc(OC)c(OC)cc21.[Cl-] [Compound No. 53, 1-n-undecyl-2-(2-chlorophenyl)methyl-3,4-dihydro-6,7-dimethoxyisoquinolinium chloride] are the same in “Relative Activity” value: 2 for the first, 2 for the second.

Going from CCCC1=[N+](Cc2ccc(C(C)(C)C)cc2)CCc2cc(OC)c(OC)cc21.[Cl-] [Compound No. 123, 1-propyl-2-(4-t-butylphenyl)methyl-3,4-dihydro-6,7-dimethoxyisoquinolinium chloride] to COc1cc2c(cc1OC)C(CCc1ccc(C(C)(C)C)cc1)=[N+](Cc1ccc(C(F)(F)F)cc1)CC2.[Cl-] [Compound No. 129, 1-(2-(4-t-butylphenyl))ethyl-2-(4-trifluoromethylphenyl)methyl-3,4-dihydro-6,7-dimethoxy isoquinolinium chloride], the “Relative Activity” value falls from 6 to 4.

CCCCc1ccc(C2=[N+](Cc3ccccc3F)CCc3cc(OC)c(OC)cc32)cc1.[Cl-] [Compound No. 21, 1-(4-n-butylphenyl)-2-(2-fluorophenyl)methyl-3,4-dihydro-6,7-dimethoxyisoquinolinium chloride] and COc1cc2c(cc1OC)C(c1ccc(Cl)cc1)=[N+](Cc1ccccc1F)CC2.[Cl-] [Compound No. 20, 1-(4-chlorophenyl)-2-(2-fluorophenyl)methyl-3,4-dihydro-6,7-dimethoxyisoquinolinium chloride] are the same in “Relative Activity” value: 6 for the first, 6 for the second.

Compared with COc1cc2c(cc1OC)C(C)=[N+](Cc1c(F)cccc1Cl)CC2.[Cl-] [Compound No. 64, 1-methyl-2-(2-chloro-6-fluorophenyl)methyl-3,4-dihydro-6,7-dimethoxyisoquinolinium chloride], COc1cc2c(cc1OC)C(C(C)C)=[N+](Cc1c(F)cccc1Cl)CC2.[Cl-] [Compound No. 65, 1-i-propyl-2-(2-chloro-6-fluorophenyl)methyl-3,4-dihydro-6,7-dimethoxyisoquinolinium chloride] is lower in “Relative Activity” value: 6 for the first, 5 for the second.

Going from CCCCCCCCCCCC1=[N+](Cc2ccc(O)c([N+](=O)[O-])c2)CCc2cc(OC)c(OC)cc21.[Cl-] [Compound No. 77, 1-n-undecyl-2-(4-hydroxy-3-nitrophenyl)methyl-3,4-dihydro-6,7-dimethoxyisoquinolinium chloride] to CCCCCCCC1=[N+](Cc2ccc(O)c([N+](=O)[O-])c2)CCc2cc(OC)c(OC)cc21.[Cl-] [Compound No. 76, 1-n-heptyl-2-(4-hydroxy-3-nitrophenyl)methyl-3,4-dihydro-6,7-dimethoxyisoquinolinium chloride], the “Relative Activity” value rises from 2 to 4.

CCCCCCCCCCCCCCCC1=[N+](Cc2ccc(C(F)(F)F)cc2)CCc2cc3c(cc21)OCO3.[Cl-] [Compound No. 109, 1-n-pentadecyl-2-(4-trifluoromethylphenyl)methyl-3,4-dihydro-6,7-methylenedioxyisoquinolinium chloride] and CCCCCCCCCCCCCCCC1=[N+](Cc2ccc(F)c(F)c2)CCc2cc3c(cc21)OCO3.[Cl-] [Compound No. 113, 1-n-pentadecyl-2-(3,4-difluorophenyl)methyl-3,4-dihydro-6,7-methylenedioxyisoquinolinium chloride] are the same in “Relative Activity” value: 1 for the first, 1 for the second.

Compared with COc1cc2c(cc1OC)C(CCc1ccc(C(C)(C)C)cc1)=[N+](Cc1c(F)c(F)c(C(F)(F)F)c(F)c1F)CC2.[Cl-] [Compound No. 131, 1-(2-(4-t-butylphenyl))ethyl-2-(2,3,5,6-tetrafluoro-4-trifluoromethylphenyl)methyl-3,4-dihydro-6,7-dimethoxy isoquinolinium chloride], COc1cc2c(cc1OC)C(c1ccc(C(C)(C)C)cc1)=[N+](Cc1c(F)cccc1F)CC2.[Cl-] [Compound No. 63, 1-(4-t-butylphenyl)-2-(2,6-difluorophenyl)methyl-3,4-dihydro-6,7-dimethoxyisoquinolinium chloride] is higher in “Relative Activity” value: 4 for the first, 6 for the second.

Compared with CCCCCC1=[N+](Cc2ccccc2Cl)CCc2cc(OC)c(OC)cc21.[Cl-] [Compound No. 50, 1-n-pentyl-2-(2-chlorophenyl)methyl-3,4-dihydro-6,7-dimethoxyisoquinolinium chloride], CCCCCCCC1=[N+](Cc2ccccc2Cl)CCc2cc(OC)c(OC)cc21.[Cl-] [Compound No. 52, 1-n-heptyl-2-(2-chlorophenyl)methyl-3,4-dihydro-6,7-dimethoxyisoquinolinium chloride] is lower in “Relative Activity” value: 6 for the first, 3 for the second.

Compared with CCCCCCC1=[N+](Cc2c(F)cccc2F)CCc2cc(OC)c(OC)cc21.[Cl-] [Compound No. 58, 1-n-hexyl-2-(2,6-difluorophenyl)methyl-3,4-dihydro-6,7-dimethoxyisoquinolinium chloride], COc1cc2c(cc1OC)C(CCl)=[N+](Cc1ccccc1F)CC2.[Cl-] [Compound No. 3, 1-chloromethyl-2-(2-fluorophenyl)methyl-3,4-dihydro-6,7-dimethoxy-isoquinolinium chloride] is higher in “Relative Activity” value: 4 for the first, 6 for the second.

COc1cc2c(cc1OC)C(c1ccc(C(C)(C)C)cc1)=[N+](Cc1ccccc1[N+](=O)[O-])CC2.[Cl-] [Compound No. 75, 1-(4-t-butylphenyl)-2-(2-nitrophenyl)methyl-3,4-dihydro-6,7-dimethoxyisoquinolinium chloride] and COc1cc2c(cc1OC)C(C)=[N+](Cc1ccccc1[N+](=O)[O-])CC2.[Cl-] [Compound No. 71, 1-methyl-2-(2-nitrophenyl)methyl-3,4-dihydro-6,7-dimethoxyisoquinolinium chloride] are the same in “Relative Activity” value: 6 for the first, 6 for the second.

Going from COc1cc2c(cc1OC)C(CCc1ccc(C(C)(C)C)cc1)=[N+](Cc1cccc(OC)c1OCc1cccc(OC)c1OC)CC2.[Cl-] [Compound No. 136, 1-(2-(4-t-butylphenyl))ethyl-2-(2-(2,3-dimethoxybenzyloxy)-3-methoxyphenyl)methyl-3,4-dihydro-6,7-dimethoxy isoquinolinium chloride] to CCCCCCCCCCCCCCCC1=[N+](Cc2ccc(C(F)(F)F)cc2)CCc2cc(OC)c(OC)cc21.[Cl-] [Compound No. 30, 1-n-pentadecyl-2-(4-trifluoromethylphenyl)methyl-3,4-dihydro-6,7-dimethoxyisoquinolinium chloride], the “Relative Activity” value falls from 4 to 1.

First: CCCCCCCCCCCCCCCC1=[N+](Cc2ccccc2Cl)CCc2cc(OC)c(OC)cc21.[Cl-] [Compound No. 54, 1-n-pentadecyl-2-(2-chlorophenyl)methyl-3,4-dihydro-6,7-dimethoxyisoquinolinium chloride]
Second: CCCCCCCCCCCC1=[N+](c2ccc(C(C)(C)C)cc2)CCc2cc(CNC(=O)OCC)c(OC)cc21.[Br-] [Compound No. 116, ethyl 3,4-dihydro-7-methoxy-6-(4-t-butylphenyl)-1-undecylisoquinolinium-6-ylmethylcabamate bromide]
The “Relative Activity” value of the first is lower: 1 for the first, 2 for the second.
